Data published in patent publication US20090202645A1, “INTRASYNOVIAL FORMULATIONS OF STANOZOLOL” (ACME DRUGS S.R.L., priority 2008, published 2009).

Key:
solubility in water = format: physicochemical; conditions: crystalline substance
From the text: The formulations according to the invention of stanozolol in an aqueous carrier are therefore aqueous suspensions, and it is necessary to prevent the suspended crystals of the drug from causing mechanical lesions such as abrasions and erosions despite the pressures and friction generated by the movement of the joint on the surfaces of the cartilage and synovial membrane.

[1] = persistence in the joint after a single intrasynovial injection; format: in vivo
From the text: A single intrasynovial injection of said formulations allows the stanozolol to be brought up to and maintained at pharmacologically active concentrations in the joint for 6-7 days, a period which is long enough to produce evident clinical benefits and fully compatible with long-term treatments.

[2] = persistence in synovial fluid of the typical intrasynovial preparation; format: in vivo; conditions: micronised stanozolol 5 mg, water for injectables to 1 ml, horses and humans
Method: An example of the formulation of a typical preparation containing stanozolol administrable by the intrasynovial route to horses and humans, which remains in the synovial fluid for 5-7 days, is set out below:
Active ingredient: micronised stanozolol (having a prevalent population of particles with a diameter of less than 20 μm) 5 mg;
Water for injectables q.s. to 1 ml.

healthy skin fibroblast = conditions: cited from earlier work
[3] = system: synovial fibroblasts from rheumatoid synovial tissue; conditions: cited from earlier work
cartilage tissue = experiment: effect on tissue, especially cartilage tissue; conditions: unlike the majority of NSAIDs and anti-inflammatory corticosteroids

## C[C@]12Cc3c[nH]nc3C[C@@H]1CC[C@@H]1[C@@H]2CC[C@@]2(C)[C@H]1CC[C@]2(C)O [stanozolol]
Solubility in water
  solubility in water: insoluble in water
[1]
  time stanozolol is maintained at pharmacologically active concentrations in the joint: 6-7 days
[2]
  time remaining in the synovial fluid: 5 to 7 days
Healthy skin fibroblast
  production of PGE2: induces the production
  production of collagenase: induces the production
[3]
  effect on synovial fibroblasts: no effect
Cartilage tissue
  degeneration of tissue, especially cartilage tissue: does not cause the degeneration of tissue, especially cartilage tissue, but regenerates it
